Source: patent publication US20030134783A1, “Use of cyclic heptapeptides for the inhibition of biofilm formation” (priority 2001, published 2003)
Numbered stars: 1 amine (or outer) side, 2 acyl side, 3 side chain; on linkers, the order of the positions; unused ones are H or OH. Bridge positions count the residues as written; N and C are the ends. Square brackets hold non-standard residues; d marks the D form. Peptide text beside a SMILES is read from it. X1 = CC(C)CCCCCCCCC[C@H](CC(=O)[*:1])O[*:2]

Experiments:
Salmonella typhimurium = assay: Biofilm formation in catheters, crystal violet staining; type: cell-based; parameters: key to Biofilm Formation: “++++” = efficient biofilm formation; “−” = no biofilm formation; conditions: for inhibition of BF by S. enterica relative to surfactin: catheters, Tween 80 at 0.25%, 10 to 100 million bacterial cells
Description: (§1) To visualize biofilm formation in catheters, 10 μl of an overnight culture of S. enterica was inoculated into 500 μl of medium and injected into clear vinyl urethral catheters overnight at 30° C., with and without 100 μg surfactin. Biofilms were analyzed by staining with CV. The catheters were capped at both ends and incubated at 30° C. overnight. Media and growth conditions were as described above for PVC wells. Cultures were removed to determine the OD630, and the catheters were rinsed with distilled water. After drying at room temperature for 15 minutes, 700 μl of crystal violet (1%) was added to the catheters for 20 minutes. The stained biofilms were rinsed several times with distilled water, and allowed to dry at room temperature for 15 minutes before examination.
S. enterica was grown in clear vinyl urethral catheters. The biofilm formed by S. enterica was dispersed all along the growth surface. […] It is important to note that the same results were obtained when venous catheters made of polyurethane were tested. The data presented here relate mainly to the urethral catheters.
When the device coated is to be inserted in the body cavity, some form of surface sterilization may be necessary. Also, endogenous fluids should not wash off the surfactin coating. Studies were conducted to determine these properties of the coating (Table 1). Urethral catheters were coated with surfactin (by passing through 500 μl of a solution of 1.0 μg/μl surfactin), and 10 mL of sterile saline solution were passed through the coated catheter.
After coating urethral cathethers with surfactin, the coated catheters were subjected to treatment in an autoclave (121° C., 15 psi) for 30 minutes or baking in a 50° C. oven for 6 hours. […] Surfactin, apparently adhered to the catheters, largely inhibiting biofilm formation.
The biofilm-inhibiting properties of surfactin are not altered after storing surfactin-baked catheters (baked for one hour at 60° C.) for 5 days at room temperature (Table 2). Further, baked on surfactin is not washed off by sterile saline dripping through the catheter at 0.3 mL/minutes for 24 hours. The BF-inhibiting properties of surfactin are stable over 50 days of storage at either room temperature or at 4° C. Thus, medical devices coated with surfactin, or a substance with surfactin-like properties, may be partially sterilized by baking at 60° C., and the sterility would be maintained over a long period of time.

[1] = test system: S. enterica pre-formed biofilm; assay: Dispersal of pre-formed biofilm in PVC wells; type: cell-based, Salmonella enterica; conditions: for effect on pre-formed biofilms: detergent-like compounds mixed into cultures in PVC wells
Description: (§2) Studies were done to test biofilm formation in microtitre wells. To quantify biofilm formation, typically, 10 μl of an overnight culture were used to inoculate PVC microtitre wells containing 90 μl of LB without NaCl, but with 2% glucose. The covered microtitre dish was sealed with parafilm during incubation at 30° C. Cultures were removed to determine the OD630, and the wells were rinsed with distilled water. After drying at room temperature for 15 minutes, 200 μl of crystal violet (1%) was added to the wells for 20 minutes The stained biofilms were rinsed several times with distilled water, allowed to dry at room temperature for 15 minutes, and extracted with 2×200 μl 95% ethanol. The OD550 was estimated using a Beckman DU-640B spectrophotometer, after adjusting the volume to 1 mL with distilled water.
Surfactin was added to PVC wells after the culture had reached an OD630 of approximately 0.15-0.2. When this OD was reached, the surfactants were gently mixed into the cultures in microtitre wells. Samples were harvested and either growth as determined by OD630 or biofilm levels as measured by OD550 of CV-stained material were analyzed. The OD550 of the surfactin-treated sample decreased at a faster rate than that of the untreated sample for the initial sloughing phase of BF, resulting in an approximately 85% decrease in total biofilm by the end of the experiment at 22 hours.
The detergents tested were SDS (ionic surfactant), Tween-80 ([…] surfactant), rhamnolipid (another lipopeptide surfactant) and serrawettin. Surfactin concentration in this and the rest of the studies was maintained at 100 μg in order to compare its activity to that of the biosurfactant rhamnolipid, which affected BF when it was used at higher concentrations.

wild-type S. enterica = assay: Biofilm formation in PVC microtitre wells, crystal violet staining; type: cell-based, Salmonella enterica
Description: The ability of lipopolysaccharide (LPS) mutants to form biofilms was tested in PVC microtitre plates. The biofilm assay used monitors the ability of S. enterica to attach to the wells of the microtitre dishes. The biofilm formed at the interface between the air and liquid medium, and was quantitated by staining with crystal violet (CV) as described in the examples given below.
as §2
The swarming defect of the LPS mutants could be rescued by the addition of the surfactin isolated from Bacillus subtilis. […]

Proteus mirabilis = assay: Biofilm formation in urethral catheters, crystal violet staining; type: cell-based
Description: as §1
(§3) The most common causes of central urinary catheter and central venous catheter infections (caused by adherent bacteria), include Eschericila coli, Proteus mirabilis, and Pseudomonas aeruginosa, Klebseiella pneumoniae, Staphylococcus epidermis. The effect of surfactin on BF by some of these medically relevant organisms was tested by growth of the organism in urethral catheters (Table 3). Escherichia coli and Proteus mirabilis formed a biofilm mainly at the air liquid interface, while the biofilm formed by P. aeruginosa, like that formed by S. enterica, was dispersed all along the catheter.

Escherichia coli = assay: as above; type: cell-based
Description: as §1, §3

Staphylococcus epidermis = assay: as above; type: cell-based; conditions: Surfactin-coated catheters
Description: as §1, §3

[2] = test system: LPS mutants of S. enterica; assay: Rescue of swarming defect of LPS mutants; type: cell-based, Salmonella enterica; conditions: addition of surfactin isolated from Bacillus subtilis

Which results are given for rhamnolipid [reference compound]?
inhibition of BF by S. enterica relative to surfactin (Salmonella typhimurium): only half as effective; effect on pre-formed biofilms [1]: dispersed pre-formed biofilm

CCCCCCCCCCCCOS(=O)(=O)[O-].[Na+] [SDS] was tested. Which “effect on pre-formed biofilms” value [1] did it give?
Its value is “dispersed pre-formed biofilm”.

How did the “inhibition of BF by S. enterica relative to surfactin” value (Salmonella typhimurium) turn out when CCCCCCCC/C=C\CCCCCCCC(=O)OCCOCC(OCCO)C1OCC(OCCO)C1OCCO (centres unmarked) [Tween-80, reference compound] was run?
The value was “as effective as surfactin”.

What about the “effect on pre-formed biofilms” value [1] of the same compound?
Its value is “dispersed pre-formed biofilm”.

What does the source list for CC(C)CCCCCCCCC[C@@H]1CC(=O)N[C@@H](CCC(=O)O)C(=O)N[C@@H](CC(C)C)C(=O)N[C@H](CC(C)C)C(=O)N[C@@H](C(C)C)C(=O)N[C@@H](CC(=O)O)C(=O)N[C@H](CC(C)C)C(=O)N[C@@H](CC(C)C)C(=O)O1 [Surfactin, surfactin] (EL[dL]VD[dL]L; linker N-C via X1)?
stability of BF-inhibiting properties on storage (Salmonella typhimurium; 50 days of storage at room temperature or at 4° C.): stable; Biofilm formation, optical density reading based on crystal violet staining (Salmonella typhimurium; Surfactin-coated catheters): 0.05; Biofilm Formation (Salmonella typhimurium; catheter treatment: Surfactin, saline wash (10 mL sterile saline)): ++++; Biofilm Formation (Salmonella typhimurium; catheter treatment: Surfactin, the oven (50° C., 6 hours)): −; formation of biofilm on the catheters (Salmonella typhimurium; clear vinyl urethral catheters, 100 μg surfactin, overnight at 30° C.): eliminated the formation of biofilm; effect of oven treatment on biofilm inhibition by surfactin (Salmonella typhimurium; coated catheters baked in 50° C. oven for 6 hours): no effect; resistance of baked surfactin coating to saline washing (Salmonella typhimurium; oven treatment of surfactin coated catheters): resistant to saline washing; effectiveness of pre-coating catheters versus surfactin in the growth medium (Salmonella typhimurium; surfactin solution run through catheters prior to inoculation): just as effective; Biofilm formation, optical density reading based on crystal violet staining (Salmonella typhimurium; surfactin-baked catheters (one hour at 60° C.), 5 days at room T.): 0.05; Biofilm formation, optical density reading based on crystal violet staining (Salmonella typhimurium; surfactin-baked catheters, 24 hour saline wash (0.3 mL/minutes)): 0.06; Biofilm Formation (Salmonella typhimurium; urethral catheter treatment: Surfactin): −; amount of surfactin sufficient to completely abolish BF (wild-type S. enterica; PVC wells pre-coated or surfactin in growth medium, overnight at 30° C.): < 5 µg; Bacterial growth (wild-type S. enterica; all surfactin concentrations tested): unaffected; Biofilm formation, optical density reading based on crystal violet staining (Proteus mirabilis; Surfactin-coated catheters): 0.11; inhibition of BF and growth (Proteus mirabilis; growth in urethral catheters): inhibited BF (but not growth); Biofilm formation, optical density reading based on crystal violet staining (Escherichia coli; Surfactin-coated catheters): 0.05; inhibition of BF and growth (Escherichia coli; growth in urethral catheters): inhibited BF (but not growth); Biofilm formation, optical density reading based on crystal violet staining (Staphylococcus epidermis): 0.40; swarming defect of the LPS mutants [2]: rescued; decrease in total biofilm (pre-formed) ([1]; surfactin 100 μg added at OD630 0.15-0.2, end of experiment at 22 hours): approximately 85%

How did the “effect on pre-formed biofilms” value [1] turn out when serrawettin was run?
The value was “dispersed pre-formed biofilm”.
